Results from ChEMBL document CHEMBL1148033, “Four new C16 1,2-dioxene-polyketides from the sponge Plakortis aff. simplex” (J Nat Prod, 1993).

Tested on: P388
Assay: Cytotoxicity against mouse P388 cells
Type: functional, cell-based

CCCC1C=CC(CCC[C@]2(OC)C=C[C@@H](CC(=O)OC)OO2)OO1 (some centres not stated)
IC50: < 0.1 µg/mL

CCC/C=C/C=C/CCC[C@]1(OC)C=C[C@@H](CC(=O)OC)OO1
IC50: < 0.1 µg/mL
